From patent EP0326640B1, “(1R,5S,6S)-2-substituted thio-6 (R)-1-hydroxyethyl -1-methyl-carbapenem - carboxylic acid derivatives” (LEDERLE (JAPAN) LTD., priority 1987, dated 1989)
Converted amounts (≈) assume the structure as drawn.

What was measured:
[1] = test system: Morganella morganii IFO3848; experiment: Antibacterial test, agar plate dilution method (MIC), standard strains; format: cell-based; settings: MH agar, 37°C, 18 hours
Description: (§1) The antibacterial activities were tested by an agar plate dilution method in accordance with the standard method of The Japanese Chemotherapy Society [Chemotherapy, Vol. 29, 76-79 (1981)].
(§2) A Mueller-Hinton (MH) agar liquid medium of a test microorganism was cultured overnight at 37°C and the resultant culture medium was diluted with a buffered saline gelatin (BSG) solution to contain approximately 10⁶ cells of the test microorganisms per milliliter, and then the diluted solution was inoculated with a microplanter at the rate of approximately 5 microliters on a MH agar medium containing a test compound. This medium was then incubated at 37°C for 18 hours. The minimum inhibitory concentration (MIC) is determined as a minimum concentration in which no test microorganism could grow. It is noted here that the test organisms used were all standard strains.

[2] = test system: Proteus mirabilis IFO3849; experiment: as above; format: cell-based; settings: Proteus mirabilis IFO3849; MH agar, 37°C, 18 hours
Description: as §1, §2

Proteus vulgaris HX-19 = experiment: as above; format: cell-based; settings: Proteus vulgaris HX-19; MH agar, 37°C, 18 hours
Description: as §1, §2

Proteus vulgaris OX-19 = experiment: as above; format: cell-based; settings: Proteus vulgaris OX-19; MH agar, 37°C, 18 hours
Description: as §1, §2

[3] = test system: Providencia rettgeri IFO 3850; experiment: as above; format: cell-based; settings: MH agar, 37°C, 18 hours
Description: as §1, §2

[4] = test system: Pseudomanas aeruginosa NCTC 10940; experiment: as above; format: cell-based; settings: MH agar, 37°C, 18 hours
Description: as §1, §2

[5] = test system: Pseudomonas aeruginosa IFO 3445; experiment: as above; format: cell-based; settings: MH agar, 37°C, 18 hours
Description: as §1, §2

[6] = test system: Salmonella enteritidis G14; experiment: as above; format: cell-based; settings: Salmonella enterica, MH agar, 37°C, 18 hours, read-out: MIC
Description: as §1, §2

[7] = test system: Salmonella paratyphi 1015; experiment: as above; format: cell-based; settings: MH agar, 37°C, 18 hours
Description: as §1, §2

[8] = test system: Salmonella schottmuelleri 8006; experiment: as above; format: cell-based; settings: MH agar, 37°C, 18 hours
Description: as §1, §2

Salmonella typhi 901 = experiment: as above; format: cell-based; settings: MH agar, 37°C, 18 hours
Description: as §1, §2

[9] = test system: Serratia marcescens IAM1184; experiment: as above; format: cell-based; settings: MH agar, 37°C, 18 hours
Description: as §1, §2

[10] = test system: Citrobactor freundii GN 346; experiment: Antibacterial activity against clinically isolated β-lactamase (cephalosporinase) producing strains (MIC); format: cell-based; settings: cephalosporinase producing strain, SDA, 18 to 20 hours
Description: (§3) The antibacterial activities against clinically isolated β-lactamase producing strains were tested by the agar plate dilution method in accordance with the standard method of The Japanese Chemotherapy Society [Chemotherapy, Vol. 29, 76-79 (1981)]. A solution of a cephalosporinase producing strain stored by Episome Research Institute, prepared by incubating the strain in a sensitivity test broth (STB; product of Nissui K. K.) for 18 hours, was diluted with a fresh STB solution so that the solution contained 10⁶ cells per milliliter. The diluted solution was then inoculated as spots in a microplanter on a sensitivity disk agar-N (SDA; product of Nissui K. K.) containing a test compound. The disk agar was then incubated for 18 to 20 hours. The minimum inhibitory concentration was determined as a minimum concentration in which the test microorganism no longer grew after a 18 to 20-hour incubation.

[11] = test system: Citrobactor freundii GN 7391; experiment: as above; format: cell-based; settings: cephalosporinase producing strain, SDA, 18 to 20 hours
Description: as §3

[12] = test system: Enterobacter cloacae GN 5797; experiment: as above; format: cell-based; settings: cephalosporinase producing strain, SDA, 18 to 20 hours
Description: as §3

[13] = test system: Enterobacter cloacae GN 7467; experiment: as above; format: cell-based; settings: Enterobacter cloacae, GN7467, Enterobacter cloacae GN 7467; cephalosporinase producing strain, SDA, 18 to 20 hours
Description: as §3

[14] = test system: Enterobacter cloacae GN 7471; experiment: as above; format: cell-based; settings: cephalosporinase producing strain, SDA, 18 to 20 hours
Description: as §3

Escherichia coli GN 5482 = experiment: as above; format: cell-based; settings: cephalosporinase producing strain, SDA, 18 to 20 hours
Description: as §3

[15] = test system: Escherichia coli No. 1501; experiment: as above; format: cell-based; settings: cephalosporinase producing strain, SDA, 18 to 20 hours
Description: as §3

Escherichia coli No. 96 = experiment: as above; format: cell-based; settings: cephalosporinase producing strain, SDA, 18 to 20 hours
Description: as §3

[16] = test system: Klebsiella oxytoca GN 10650; experiment: as above; format: cell-based; settings: Klebsiella oxytoca GN 10650; cephalosporinase producing strain, SDA, 18 to 20 hours
Description: as §3

Proteus morganii GN 5307 = experiment: as above; format: cell-based; settings: Proteus morganii GN 5307; cephalosporinase producing strain, SDA, 18 to 20 hours
Description: as §3

Proteus morganii GN 5375 = experiment: as above; format: cell-based; settings: Morganella morganii, GN5375, cephalosporinase producing strain, SDA, 18 to 20 hours
Description: as §3

Proteus morganii GN 5407 = experiment: as above; format: cell-based; settings: Morganella morganii, GN5407, cephalosporinase producing strain, SDA, 18 to 20 hours
Description: as §3

Proteus vulgaris GN 4413 = experiment: as above; format: cell-based; settings: Proteus vulgaris GN 4413; cephalosporinase producing strain, SDA, 18 to 20 hours
Description: as §3

Proteus vulgaris GN 76 = experiment: as above; format: cell-based; settings: Proteus vulgaris GN 76; cephalosporinase producing strain, SDA, 18 to 20 hours
Description: as §3

Proteus vulgaris GN 7919 = experiment: as above; format: cell-based; settings: Proteus vulgaris GN 7919; cephalosporinase producing strain, SDA, 18 to 20 hours
Description: as §3

[17] = test system: Providencia rettgeri GN 4430; experiment: as above; format: cell-based; settings: cephalosporinase producing strain, SDA, 18 to 20 hours
Description: as §3

[18] = test system: Providencia rettgeri GN 4762; experiment: as above; format: cell-based; settings: Providencia rettgeri GN 4762; cephalosporinase producing strain, SDA, 18 to 20 hours
Description: as §3

[19] = test system: Providencia rettgeri GN 5284; experiment: as above; format: cell-based; settings: cephalosporinase producing strain, SDA, 18 to 20 hours
Description: as §3

[20] = test system: Pseudomonas aeruginosa GN 10362; experiment: as above; format: cell-based; settings: cephalosporinase producing strain, SDA, 18 to 20 hours
Description: as §3

[21] = test system: Pseudomonas aeruginosa GN 10367; experiment: as above; format: cell-based; settings: GN10367; Pseudomonas aeruginosa GN 10367; cephalosporinase producing strain, SDA, 18 to 20 hours; read-out: MIC
Description: as §3

[22] = test system: Pseudomonas aeruginosa GN 918; experiment: as above; format: cell-based; settings: Pseudomonas aeruginosa, GN918, Pseudomonas aeruginosa GN 918; cephalosporinase producing strain, SDA, 18 to 20 hours
Description: as §3

[23] = test system: Pseudomonas cepacia GN 11164; experiment: as above; format: cell-based; settings: cephalosporinase producing strain, SDA, 18 to 20 hours
Description: as §3

[24] = test system: Serratia marcescens GN 10857; experiment: as above; format: cell-based; settings: Serratia marcescens GN 10857; cephalosporinase producing strain, SDA, 18 to 20 hours
Description: as §3

Serratia marcescens L-65 = experiment: as above; format: cell-based; settings: Serratia marcescens L-65; cephalosporinase producing strain, SDA, 18 to 20 hours
Description: as §3

Serratia marcescens L-82 = experiment: as above; format: cell-based; settings: cephalosporinase producing strain, SDA, 18 to 20 hours
Description: as §3

[25] = test system: P. aeruginosa resistant strains; experiment: Sensitivity test against clinical isolates, agar plate dilution method; format: cell-based
Description: The test procedures were based on the agar plate dilution method in accordance with the standard method of The Japanese Chemotherapy Society. The minimum inhibitory concentration (MIC) was determined in substantially the same manner as the test procedures II above using the 54 strains of P. aeruginosa having an anti-Pseudomonas resistance.

[26] = test system: male mice of CrjCD(SD) strain; experiment: Toxicity, intravenous administration to mice, observation for one week; format: in vivo; settings: 500 mg/kg administered intravenously; group of 10 male mice
Description: Toxicological studies were carried out using a group of 10 male mice of CrjCD(SD) strain weighing from 20 to 23 grams. A solution containing the crystalline carbapenem compound (20) of the present invention obtained by Example 11 was administered intravenously to the mice and subjected to observations for one week.

[27] = target: T1, Swine Kidney Dehydropeptidase-I (DHP-I) (Sus scrofa, UniProt P22412); experiment: Hydrolysis activity against DHP-I enzyme substrate by late assay; format: in vitro ADME; settings: substrate concentration 100 µM, 37°C, 10 minutes
T1 construct: made soluble by treatment with butanol and purified by the ammonium sulfate fraction method, thereby producing DHP-I enzyme from a 75% ammonium sulfate fraction; from tissue; host or cells: swine kidney
T1 sequence (P22412 17-384): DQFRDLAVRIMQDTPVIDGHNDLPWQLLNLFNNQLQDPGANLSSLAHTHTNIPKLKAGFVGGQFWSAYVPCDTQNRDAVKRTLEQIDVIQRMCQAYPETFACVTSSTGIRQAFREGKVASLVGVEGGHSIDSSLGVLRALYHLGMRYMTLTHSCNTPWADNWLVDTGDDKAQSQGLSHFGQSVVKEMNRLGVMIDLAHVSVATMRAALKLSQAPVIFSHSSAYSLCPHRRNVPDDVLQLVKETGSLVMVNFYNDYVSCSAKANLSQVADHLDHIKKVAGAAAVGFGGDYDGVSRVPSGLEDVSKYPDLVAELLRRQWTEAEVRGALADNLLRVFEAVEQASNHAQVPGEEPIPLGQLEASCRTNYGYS
Description: The swine kidney (8 kg) was homogenized and the enzyme protein was allowed to precipitate. After a connective lipid was removed with acetone, the resultant material was made soluble by treatment with butanol and purified by the ammonium sulfate fraction method, thereby producing DHP-I enzyme from a 75% ammonium sulfate fraction. The DHP-I enzyme was then adjusted to give an enzyme concentration of 25 mg/10 ml (phosphate buffer, pH 7.1), and divided into 1 ml portions. The portions were frozen and stored at -40°C or less until use. Glycyl dehydrophenylalanine (Gl-dh-Ph) and imipenem were employed as control compounds, and they were adjusted in situ each to give a concentration of 117 µM with the same sodium phosphate buffer solution. […] The solution was then incubated at 37°C for 10 minutes. The initial velocity of hydrolysis of the substrate was measured from a decrease in absorbency at a particular λmax of each of the substrates. A blank test was conducted in substantially the same manner as above by adding 0.2 ml of the sodium phosphate buffer solution (pH 7.1) to 1.2 ml of the above substrate.

Work on C[C@@H](O)[C@H]1C(=O)N2C(C(=O)[O-])=C(SCc3cs[n+](C)n3)[C@H](C)[C@H]12 [Crystalline Compd. (20), (1R,5S,6S)-2-[(2-methyl-1,2,3-thiadiazolium-4-yl)methyl]thio-6-[(R)-1-hydroxyethyl]-1-methyl-carbapenem-3-carboxylate] yielded an MIC [1] of 0.2 µg/mL (≈ 0.563 µM), an MIC [2] of 3.13 µg/mL (≈ 8.81 µM) and an MIC (Proteus vulgaris HX-19) of 1.56 µg/mL (≈ 4.39 µM). For the same compound, the MIC (Proteus vulgaris OX-19) was 1.56 µg/mL (≈ 4.39 µM), the MIC [3] was 0.025 µg/mL (≈ 0.0703 µM) and the MIC [4] was 0.2 µg/mL (≈ 0.563 µM). For the same compound, the MIC [5] was 0.39 µg/mL (≈ 1.1 µM), the MIC [6] was 0.78 µg/mL (≈ 2.19 µM) and the MIC [7] was 1.56 µg/mL (≈ 4.39 µM). The MIC [8] was 0.39 µg/mL (≈ 1.1 µM), the MIC (Salmonella typhi 901) was 0.013 µg/mL (≈ 0.0366 µM) and the MIC [9] was 0.78 µg/mL (≈ 2.19 µM). For the same compound, the MIC [10] was 0.78 µg/mL (≈ 2.19 µM), the MIC [11] was 0.78 µg/mL (≈ 2.19 µM) and the MIC [12] was 0.1 µg/mL (≈ 0.281 µM). For the same compound, the MIC [13] was 1.56 µg/mL (≈ 4.39 µM), the MIC [14] was 0.1 µg/mL (≈ 0.281 µM) and the MIC (Escherichia coli GN 5482) was 0.05 µg/mL (≈ 0.141 µM). It also gave an MIC [15] of 0.05 µg/mL (≈ 0.141 µM), an MIC (Escherichia coli No. 96) of 0.05 µg/mL (≈ 0.141 µM) and an MIC [16] of 0.2 µg/mL (≈ 0.563 µM). It also gave an MIC (Proteus morganii GN 5307) of 0.78 µg/mL (≈ 2.19 µM), an MIC (Proteus morganii GN 5375) of 1.56 µg/mL (≈ 4.39 µM) and an MIC (Proteus morganii GN 5407) of 1.56 µg/mL (≈ 4.39 µM). The MIC (Proteus vulgaris GN 4413) was 3.13 µg/mL (≈ 8.81 µM), the MIC (Proteus vulgaris GN 76) was 3.13 µg/mL (≈ 8.81 µM) and the MIC (Proteus vulgaris GN 7919) was 0.78 µg/mL (≈ 2.19 µM). It also gave an MIC [17] of 0.39 µg/mL (≈ 1.1 µM), an MIC [18] of 0.2 µg/mL (≈ 0.563 µM) and an MIC [19] of 0.39 µg/mL (≈ 1.1 µM). The MIC [20] was 0.78 µg/mL (≈ 2.19 µM), the MIC [21] was 3.13 µg/mL (≈ 8.81 µM) and the MIC [22] was 1.56 µg/mL (≈ 4.39 µM). The MIC [23] was 0.39 µg/mL (≈ 1.1 µM), the MIC [24] was 3.13 µg/mL (≈ 8.81 µM) and the MIC (Serratia marcescens L-65) was 0.39 µg/mL (≈ 1.1 µM). For the same compound, the MIC (Serratia marcescens L-82) was 0.2 µg/mL (≈ 0.563 µM), the “concentration to inhibit the growth of all the test microorganisms” value [25] was 6.25 µg/mL and the percent of strains inhibited at 3.13 µg/mL ([25]; Pseudomonas aeruginosa, read-out: test microorganisms whose growth is inhibited) was about 99%. For the same compound, the “toxicity, observations for one week” value [26] was “alive without any abnormal observations”.
With NCC(=O)NC(=Cc1ccccc1)C(=O)O [Gl-dh-Ph, Glycyl dehydrophenylalanine] the “initial velocity of hydrolysis” value [27] was 17.4 µM/min.
